Laboratory results as given in ChEMBL document CHEMBL4665869, “New thiazolopyrimidine as anticancer agents: Synthesis, biological evaluation, DNA binding, molecular modeling and ADMET study” (Bioorg Med Chem Lett, 2020).
Active and inactive are the calls of the source. The calls are words filed in the database; no cut-off is given here.

Legend:
Assay type in all cases: functional
[1] = test system: Panel NCI-60 (60 carcinoma cell lines); experiment: Growth inhibition of human NCI60 cells
[2] = test system: SF-295; experiment: Growth inhibition of human SF-295 cells at 10 uM relative to control
[3] = test system: UACC-62; experiment: Growth inhibition of human UACC-62 cells at 10 uM relative to control
[4] = test system: SN12C; experiment: Growth inhibition of human SN12C cells at 10 uM relative to control
[5] = test system: MDA-MB-468; experiment: Growth inhibition of human MDA-MB-468 cells at 10 uM relative to control
[6] = test system: SK-MEL-2; experiment: Growth inhibition of human SK-MEL-2 cells at 10 uM relative to control
[7] = test system: HOP-62; experiment: Growth inhibition of human HOP-62 cells at 10 uM relative to control
[8] = test system: K562; experiment: Growth inhibition of human K562 cells at 10 uM relative to control; details: read-out: GI
[9] = test system: NCI-H322M; experiment: Growth inhibition of human NCI-H322M cells at 10 uM relative to control; details: read-out: GI
[10] = test system: SF-268; experiment: Growth inhibition of human SF-268 cells at 10 uM relative to control
[11] = test system: Leukemia cell; experiment: Growth inhibition of human leukemia cancer cells
[12] = test system: PC-3; experiment: Growth inhibition of human PC-3 cells at 10 uM relative to control
[13] = test system: Melanoma cell line; experiment: Growth inhibition of human melanoma cancer cells
[14] = test system: RXF 393; experiment: Growth inhibition of human RXF 393 cells at 10 uM relative to control
[15] = test system: MCF7; experiment: Growth inhibition of human MCF7 cells at 10 uM relative to control
[16] = test system: UO-31; experiment: Growth inhibition of human UO-31 cells at 10 uM relative to control
[17] = test system: M14; experiment: Growth inhibition of human M14 cells at 10 uM relative to control
[18] = test system: COLO 205; experiment: Growth inhibition of human COLO 205 cells at 10 uM relative to control
[19] = test system: T47D; experiment: Growth inhibition of human T47D cells at 10 uM relative to control; details: read-out: GI
[20] = test system: NCI/ADR-RES; experiment: Growth inhibition of human NCI/ADR-RES cells at 10 uM relative to control; details: read-out: GI
[21] = test system: MDA-MB-435; experiment: Growth inhibition of human MDA-MB-435 cells at 10 uM relative to control
[22] = test system: HT-29; experiment: Growth inhibition of human HT-29 cells at 10 uM relative to control
[23] = test system: SNB-75; experiment: Growth inhibition of human SNB-75 cells at 10 uM relative to control; details: read-out: GI
[24] = test system: Hs-578T; experiment: Growth inhibition of human Hs-578T cells at 10 uM relative to control; details: read-out: GI
[25] = test system: SK-OV-3; experiment: Growth inhibition of human SK-OV-3 cells at 10 uM relative to control
[26] = test system: IGROV-1; experiment: Growth inhibition of human IGROV-1 cells at 10 uM relative to control
[27] = test system: ACHN; experiment: Growth inhibition of human ACHN cells at 10 uM relative to control
[28] = test system: NCI-H226; experiment: Growth inhibition of human NCI-H226 cells at 10 uM relative to control; details: read-out: GI
[29] = test system: U-251; experiment: Growth inhibition of human U-251 cells at 10 uM relative to control
[30] = test system: CAKI-1; experiment: Growth inhibition of human CAKI-1 cells at 10 uM relative to control
[31] = test system: OVCAR-5; experiment: Growth inhibition of human OVCAR-5 cells at 10 uM relative to control
[32] = Growth inhibition of human CNS cancer cells; details: CNS cell
[33] = test system: SW-620; experiment: Growth inhibition of human SW-620 cells at 10 uM relative to control
[34] = test system: HOP-92; experiment: Growth inhibition of human HOP-92 cells at 10 uM relative to control
[35] = test system: SNB-19; experiment: Growth inhibition of human SNB-19 cells at 10 uM relative to control; details: read-out: GI
[36] = test system: OVCAR-8; experiment: Growth inhibition of human OVCAR-8 cells at 10 uM relative to control; details: read-out: GI
[37] = test system: BT-549; experiment: Growth inhibition of human BT-549 cells at 10 uM relative to control
[38] = test system: DU-145; experiment: Growth inhibition of human DU-145 cells at 10 uM relative to control
[39] = test system: A498; experiment: Growth inhibition of human A498 cells at 10 uM relative to control
[40] = Growth inhibition of human breast cancer cells; details: Breast cancer cell line
[41] = Growth inhibition of human prostate cancer cells; details: Prostate tumor cell line
[42] = test system: NCI-H460; experiment: Growth inhibition of human NCI-H460 cells at 10 uM relative to control
[43] = test system: HCC 2998; experiment: Growth inhibition of human HCC 2998 cells at 10 uM relative to control
[44] = test system: HL-60(TB); experiment: Growth inhibition of human HL-60(TB) cells at 10 uM relative to control
[45] = test system: SK-MEL-5; experiment: Growth inhibition of human SK-MEL-5 cells at 10 uM relative to control
[46] = test system: NCI-H522; experiment: Growth inhibition of human NCI-H522 cells at 10 uM relative to control
[47] = test system: HCT-116; experiment: Growth inhibition of human HCT-116 cells at 10 uM relative to control
[48] = Growth inhibition of human renal cancer cells; details: Renal cancer cell line
[49] = test system: KM12; experiment: Growth inhibition of human KM12 cells at 10 uM relative to control
[50] = test system: RPMI-8226; experiment: Growth inhibition of human RPMI-8226 cells at 10 uM relative to control
[51] = test system: LOX IMVI; experiment: Growth inhibition of human LOX IMVI cells at 10 uM relative to control
[52] = test system: SR; experiment: Growth inhibition of human SR cells at 10 uM relative to control
[53] = test system: 786-0; experiment: Growth inhibition of human 786-0 cells at 10 uM relative to control
[54] = test system: OVCAR-4; experiment: Growth inhibition of human OVCAR-4 cells at 10 uM relative to control; details: read-out: GI
[55] = test system: HCT-15; experiment: Growth inhibition of human HCT-15 cells at 10 uM relative to control
[56] = test system: NCI-H23; experiment: Growth inhibition of human NCI-H23 cells at 10 uM relative to control
[57] = read-out: LC50 (the source's name)

With COc1cc(/C=C/C2=CC(c3cc(OC)c(OC)c(OC)c3)N3C=C(C)SC3=N2)cc(OC)c1OC (stereo not given) as the compound, how does the GI50 [1] read?
Its GI50 is 1.07 µM.

And the LC50 [1]?
Its LC50 is 34.7 µM.

What about the TGI [1] of the same compound?
The TGI was 6.61 µM.

And the “growth inhibition (GI)” value [2]?
Its value is “Active”.

What about the “growth inhibition (GI)” value [3] of the same compound?
The value was “Active”.

And the “growth inhibition (GI)” value [4]?
The value was “Active”.

What about the “growth inhibition (GI)” value [5] of the same compound?
The value was “Active”.

And the “growth inhibition (GI)” value [6]?
The value was “Active”.

What about the “growth inhibition (GI)” value [7] of the same compound?
Its value is “Active”.

What about the inhibition of growth at 10 µM [8] of the same compound?
Its inhibition of growth at 10 µM is 97.8%.

What about the inhibition of growth at 10 µM [9] of the same compound?
The inhibition of growth at 10 µM was 86.4%.

And the “growth inhibition (GI)” value [10]?
The value was “Active”.

What about the GI50 [11] of the same compound?
Its GI50 is 0.43 µM.

What about the TGI [11] of the same compound?
The TGI was 61.9 µM.

And the CC50 [11, 57]?
The CC50 was over 100 µM.

And the “growth inhibition (GI)” value [12]?
Its value is “Active”.

And the GI50 [13]?
Its GI50 is 0.99 µM.

And the TGI [13]?
Its TGI is 3.37 µM.

And the CC50 [13, 57]?
The CC50 was 18.2 µM.

What about the “growth inhibition (GI)” value [14] of the same compound?
Its value is “Active”.

And the “growth inhibition (GI)” value [15]?
The value was “Active”.

What about the “growth inhibition (GI)” value [16] of the same compound?
The value was “Active”.

And the “growth inhibition (GI)” value [17]?
Its value is “Active”.

What about the “growth inhibition (GI)” value [18] of the same compound?
The value was “Active”.

And the inhibition of growth at 10 µM [19]?
Its inhibition of growth at 10 µM is 92%.

And the inhibition of growth at 10 µM [20]?
Its inhibition of growth at 10 µM is 80.6%.

And the “growth inhibition (GI)” value [21]?
The value was “Active”.

And the “growth inhibition (GI)” value [22]?
Its value is “Active”.

And the inhibition of growth at 10 µM [23]?
Its inhibition of growth at 10 µM is 75.6%.

And the inhibition of growth at 10 µM [24]?
Its inhibition of growth at 10 µM is 98%.

And the “growth inhibition (GI)” value [25]?
The value was “Active”.

And the “growth inhibition (GI)” value [26]?
Its value is “Active”.

And the “growth inhibition (GI)” value [27]?
The value was “Active”.

What about the inhibition of growth at 10 µM [28] of the same compound?
The inhibition of growth at 10 µM was 97.3%.

What about the “growth inhibition (GI)” value [29] of the same compound?
Its value is “Active”.

And the “growth inhibition (GI)” value [30]?
Its value is “Active”.

What about the “growth inhibition (GI)” value [31] of the same compound?
Its value is “Active”.

What about the GI50 [32] of the same compound?
The GI50 was 1.85 µM.

And the TGI [32]?
Its TGI is 10.2 µM.

And the CC50 [32, 57]?
The CC50 was 54.2 µM.

What about the “growth inhibition (GI)” value [33] of the same compound?
The value was “Active”.

What about the “growth inhibition (GI)” value [34] of the same compound?
Its value is “Active”.

And the inhibition of growth at 10 µM [35]?
The inhibition of growth at 10 µM was 66.5%.

And the inhibition of growth at 10 µM [36]?
The inhibition of growth at 10 µM was 91.9%.

What about the “growth inhibition (GI)” value [37] of the same compound?
The value was “Active”.

What about the “growth inhibition (GI)” value [38] of the same compound?
The value was “Active”.

And the “growth inhibition (GI)” value [39]?
Its value is “Active”.

What about the GI50 [40] of the same compound?
The GI50 was 1.39 µM.

And the TGI [40]?
The TGI was 17.9 µM.

And the CC50 [40, 57]?
Its CC50 is 68.7 µM.

And the GI50 [41]?
The GI50 was 1.69 µM.

And the TGI [41]?
Its TGI is 52.9 µM.

What about the CC50 [41, 57] of the same compound?
The CC50 was over 100 µM.

What about the “growth inhibition (GI)” value [42] of the same compound?
The value was “Active”.

What about the “growth inhibition (GI)” value [43] of the same compound?
The value was “Active”.

And the “growth inhibition (GI)” value [44]?
The value was “Active”.

And the “growth inhibition (GI)” value [45]?
The value was “Active”.

And the “growth inhibition (GI)” value [46]?
Its value is “Active”.

And the “growth inhibition (GI)” value [47]?
The value was “Active”.

And the GI50 [48]?
Its GI50 is 1.49 µM.

What about the TGI [48] of the same compound?
Its TGI is 4.38 µM.

What about the CC50 [48, 57] of the same compound?
The CC50 was 54.7 µM.

What about the “growth inhibition (GI)” value [49] of the same compound?
Its value is “Active”.

And the “growth inhibition (GI)” value [50]?
Its value is “Active”.

And the “growth inhibition (GI)” value [51]?
Its value is “Active”.

And the “growth inhibition (GI)” value [52]?
The value was “Active”.

And the “growth inhibition (GI)” value [53]?
Its value is “Active”.

What about the inhibition of growth at 10 µM [54] of the same compound?
The inhibition of growth at 10 µM was 88.4%.

And the “growth inhibition (GI)” value [55]?
The value was “Active”.

And the “growth inhibition (GI)” value [56]?
Its value is “Active”.
